“And” between values parts separate entries of the source, which are not always exact repeats. Equal values may be shown once.
Test system: 327498-153-R-J2-PDC complex spheroid growth, % test/control
Experiment: Anticancer human tumor 327498-153-R-J2-PDC patient-derived uterine carcinosarcoma cell line growth inhibition [Asc]
Conditions: for viability, T/C: stronger effect = lower value
Protocol: Multicellular complex tumor spheroid response to apoptosis pathway targeting inhibitors Alrizomadlin, Pelcitoclax, and Dasminapant in combination with a variety of drugs and investigational agents in selected tumor cell lines
The MDM2 inhibitor alrizomadlin, the Bcl-2/Bcl-xL inhibitor pelcitoclax, and the IAPs inhibitor dasminapant were evaluated both individually and in combination with standard of care and investigational anticancer small molecules within a complex spheroid model of solid tumors. . Complex spheroids include a stromal component modeled by human endothelial cells (HUVEC) and fibroblasts modeled by human mesenchymal stem cells (MSCs). The concentration ranges selected for each drug and investigational agent were based upon clinically achievable concentrations if the clinical Cmax of the agent was known.
Compounds. The drugs and investigational agents: alrizomadlin (APG-115; NSC831270), pelcitoclax (APG-1252; NSC835773), dasminapant (APG-1387;NSC834197), TAK-243 (NSC785004), copanlisib (NSC809693), olaparib (NSC753686), talazoparib (NSC767125), cobimetinib (NSC 768068), eltanexor (KPT-8602, NSC 794443), abemaciclib (NSC 768073), sotorasib (NSC818433), adagrasib (NSC 831453), MRTX-1133 (NSC 836407), Iadademestat (ORY1001, NSC 806812), and RMC-4630 (NSC839698), were obtained from the NCI Developmental Therapeutics Program Chemical Repository. The FDA-approved anticancer drug set is available from the Developmental Therapeutics Program at https://dtp.cancer.gov/organization/dscb/obtaining/available plates.htm. […] The stock solutions were prepared in dimethyl sulfoxide (DMSO, Sigma-Aldrich, St. Louis, MO, cat. D2650) at 800-fold the tested concentration and stored at -70 degrees C prior to their use. All drugs and investigational agents were tested over a range starting from a high concentration at or near the clinical Cmax and decreasing in half-log increments. If the clinical Cmax for an agent had not been determined, the highest concentration tested was 10 microM.
The patient-derived cancer (PDC) cell lines include five colon adenocarcinomas: 186277-243-T-J2-PDC, 616215-338-R-J1-PDC, 439559-082-T-J2-PDC, 463943-066-T-J2-PDC, and 519858-162-T-J1-PDC; three pancreatic carcinomas: 323965-272-R-J2-PDC, 521955-158-R6-J3-PDC, and 521955-158-R2-J5-PDC; two uterine sarcomas: 327498-152-R-J2-PDC and 993429-296-R-J1-PDC; two rhabdomyosarcomas: 755483-174-R-J1-PDC and 772245-204-R-J1-PDC; two soft tissue sarcomas: 126254-015-R-J1-PDC and 494315-158-R-J1-PDC; two malignant fibrous histiocytomas: 317291-083-R-J1-PDC and 596521-263-R-J1-PDC; two breast carcinomas: 171881-019-R-J1-PDC and 885512-296-R-J2-PDC; and one ovarian carcinoma: 6556581-035-R-J-PDC were obtained from the NCI PDMR, (https://pdmr.cancer.gov). The established cell lines HSSY-2 synovial sarcoma (RRID:CVCL 8719), SYO-1 synovial sarcoma (RRID:CVCL_7146), MPNST malignant peripheral neural sheath tumor were obtained from the Sloan Kettering Institute. The following established cell lines were purchased from the American Type Culture Collection (ATCC, Manassas, VA), Sor the received from the NCI repository:, PANC-1 pancreatic carcinoma (CRL-1469, RRID:CVCL_0480), OVCAR-5 ovarian carcinoma (RRID:CVCL_1628), OVCAR-8 ovarian carcinoma (RRID:CVCL_1629), , MCF-7 breast carcinoma (CRL-12584, RRID:CVCL_0031), MDA-MB-231 breast carcinoma (CRL-12532, RRID:CVCL_0062), NCI-H1876 small cell lung carcinoma (CRL-5902, RRID:CVCL_1503), NCI-H510A small cell lung carcinoma (HTB-184, RRID:CVCL_1565), NCI-H1417 (CRL-5869, RRID:CVCL_1469), and NCI-H196 small cell lung carcinoma (CRL-5823, RRID:CVCL_1509). Dr. Peter Houghton (Greehey Children's Cancer Research Institute, University of Texas Health Science Center, San Antonio, TX) provided Rh-18 rhabdomyosarcoma (RRID:CVCL_1659). Pooled donor human umbilical vein endothelial cells (HUVEC, Lonza, cat. CC-2519) and human mesenchymal stem cells (hMSC, Lonza, cat. PT-2501) were purchased from Lonza (Walkersville, MD).
Cell Culture. […]
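Further: spheroids exposed to compound for 7 days after 3 days of growth.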
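Wherever viability, T/C is given: 100% = DMSO vehicle control wells.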

IC50 (curve of compound)	SMILES	viability, T/C (compound 0.1 µM)	viability, T/C (compound 0.316 µM)	viability, T/C (compound 1 µM)	viability, T/C (compound 0.00316 µM)	viability, T/C (compound 0.01 µM)	viability, T/C (compound 0.0316 µM)	other results
	Cc1c(S(C)(=O)=O)c(-c2cc(F)cc(N3CCN(c4ccc(NS(=O)(=O)c5ccc(NC(CCN6CCC(C(=O)OCCCP(=O)(O)O)CC6)CSc6ccccc6)c(S(=O)(=O)C(F)(F)F)c5)cc4)CC3)c2)c(-c2ccc(Cl)cc2)n1C(C)C (stereo not drawn)	94.6% [middle of 14 runs]	96.1% [middle of 14 runs]	94.4% [middle of 14 runs]				viability, T/C (compound 3.16 µM): 90.3% [middle of 14 runs]; viability, T/C (compound 10 µM): 166% [middle of 14 runs]; IC50 (compound alone, run of 09/27/2022): > 10000 nM
> 3000 nM and 1400 nM	Cc1nc(N2CCC3(CC2)COC(C)C3N)c(CO)nc1Sc1ccnc(N)c1Cl (stereo not drawn)							viability, T/C (compound 0.00949 µM): 98.2% and 101% and 93%; viability, T/C (compound 0.03 µM): 94% and 88.4% and 87.5%; viability, T/C (compound 0.0949 µM): 86.9% and 73.2% and 77%; viability, T/C (compound 0.3 µM): 76.2% and 64.7% and 71.6%; viability, T/C (compound 0.949 µM): 65.4% and 58.5% and 56.2%; viability, T/C (compound 3 µM): 49.8% and 40.1% and 52.5%
15.1 nM and 20.5 nM and 15.8 nM	Cn1ncnc1[C@H]1c2n[nH]c(=O)c3cc(F)cc(c23)N[C@@H]1c1ccc(F)cc1	12.9% and 16.1% and 13.9%			88.7% and 110% and 91.1%	61.8% and 77.4% and 65.8%	28.1% and 33.8% and 26.1%	viability, T/C (compound 0.000316 µM): 95.8% and 103% and 101%; viability, T/C (compound 0.001 µM): 93.7% and 105% and 94%
45.9 nM and 40.1 nM and 50.9 nM	NC(=O)C(=Cn1cnc(-c2cc(C(F)(F)F)cc(C(F)(F)F)c2)n1)c1cncnc1							viability, T/C (compound 0.000949 µM): 89.1% and 91.1% and 101%; viability, T/C (compound 0.003 µM): 102% and 93.5% and 96.2%; viability, T/C (compound 0.00949 µM): 83.6% and 84.6% and 93.2%; viability, T/C (compound 0.03 µM): 71.5% and 61.5% and 78%; viability, T/C (compound 0.0949 µM): 14.8% and 17.4% and 17.2%; viability, T/C (compound 0.3 µM): 3.13% and 3.94%
> 100 nM	NC1CCC(NC2CC2c2ccccc2)CC1 (stereo not drawn)	89.5% and 98.1% and 92.1%			104% and 101% and 98.6%	96.9% and 103% and 106%	96.4% and 105% and 96.6%	viability, T/C (compound 0.000316 µM): 101% and 116% and 107%; viability, T/C (compound 0.001 µM): 97.7% and 101% and 104%
4010 nM and 5010 nM and 5130 nM	O=C(c1cc(Cc2n[nH]c(=O)c3ccccc23)ccc1F)N1CCN(C(=O)C2CC2)CC1	89.6% and 99.6% and 105%	92.9% and 93.8% and 98%	78.8% and 89.2% and 93.4%			86.5% and 104% and 109%	viability, T/C (compound 3.16 µM): 58.8% and 71.2% and 71.8%; viability, T/C (compound 10 µM): 18.3% and 19.8% and 20.8%
456 nM and 339 nM and 455 nM	O=C(c1ccc(F)c(F)c1Nc1ccc(I)cc1F)N1CC(O)([C@@H]2CCCCN2)C1	81% and 66.6% and 80.8%	60.5% and 59.8% and 60.2%	27.1% and 21.9% and 27.9%	96.9% and 101% and 95.2%	96.2% and 95.5% and 92.5%	88.3% and 78.5% and 90.8%	

From PubChem BioAssay AID1963424 (Molecular Pharmacology Branch, DTP, NCI, 2024)
